In brackets after ≈: the same amount, converted by molar mass.
How the values were obtained:
[1] = system: Mycobacterium tuberculosis; assay: Antibacterial activity against Mycobacterium tuberculosis H37Rv ATCC 27294 assessed as reduction in mycobacterial growth incubated for 5 days by MABA method; type: functional; conditions: H37Rv ATCC 27294, 120 h
[2] = system: Mycobacterium tuberculosis; assay: Potency index, ratio of pyrazinamide MIC to test compound MIC against Mycobacterium tuberculosis H37Rv ATCC 27294; type: functional
[3] = system: Mycobacterium tuberculosis; assay: Potency index, ratio of ciprofloxacin MIC to test compound MIC against Mycobacterium tuberculosis H37Rv ATCC 27294; type: functional
Escherichia coli = assay: Antibacterial activity against Escherichia coli incubated for 24 hrs by agar dilution method; type: functional
Staphylococcus aureus = assay: Antibacterial activity against Staphylococcus aureus incubated for 24 hrs by agar dilution method; type: functional
Pseudomonas aeruginosa = assay: Antibacterial activity against Pseudomonas aeruginosa incubated for 24 hrs by agar dilution method; type: functional
[4] = system: Mycobacterium tuberculosis; assay: Potency index, ratio of streptomycin MIC to test compound MIC against Mycobacterium tuberculosis H37Rv ATCC 27294; type: functional
Vero = assay: Cytotoxicity against African green monkey Vero cells assessed as reduction in cell viability incubated for 72 hrs by MTT assay; type: cell-based; conditions: Chlorocebus sabaeus
[5] = Cytotoxicity against African green monkey Vero cells assessed as cell growth inhibition at 6.25 ug/ml incubated for 72 hrs by MTT assay relative to control; type: cell-based; conditions: chlorocebus sabaeus, read-out: GI
[6] = Selectivity index, ratio of IC50 for African green monkey Vero cells to MIC for Mycobacterium tuberculosis H37Rv ATCC 27294; type: toxicity; conditions: read-out: Selectivity Index
[7] = system: Mycobacterium tuberculosis; assay: Antibacterial activity against Mycobacterium tuberculosis H37Rv infected in Swiss albino mouse assessed as log reduction in bacterial burden in lungs at 26 mg/kg, po administered via gavage starting from 6 weeks post infection measured after 3 to 4 weeks co-treated with isoniazid; type: functional
[8] = system: Mycobacterium tuberculosis; assay: Antibacterial activity against Mycobacterium tuberculosis H37Rv infected in Swiss albino mouse assessed as log reduction in bacterial burden in spleen at 26 mg/kg, po administered via gavage starting from 6 weeks post infection measured after 3 to 4 weeks co-treated with isoniazid; type: functional
[9] = system: Mycobacterium tuberculosis; assay: Antibacterial activity against Mycobacterium tuberculosis H37Rv infected in Swiss albino mouse assessed as log reduction in bacterial burden in spleen at 26 mg/kg, po administered via gavage starting from 6 weeks post infection measured after 3 to 4 weeks co-treated with rifampicin; type: functional
[10] = system: Mycobacterium tuberculosis; assay: Antibacterial activity against Mycobacterium tuberculosis H37Rv infected in Swiss albino mouse assessed as log reduction in bacterial burden in lungs at 26 mg/kg, po administered via gavage starting from 6 weeks post infection measured after 3 to 4 weeks co-treated with rifampicin; type: functional

Row | SMILES | MIC [1] | Ratio [2] | Ratio [3] | MIC (Escherichia coli) [µg/mL] | MIC (Staphylococcus aureus) [µg/mL] | MIC (Pseudomonas aeruginosa) [µg/mL] | Ratio [4] | IC50 (Vero) [µg/mL] | inhibition at 72 h, 6.25 ug/ml [5] [%] | selectivity ratio [6] | Activity [7] [log10CFU] | Activity [8] [log10CFU] | Activity [9] [log10CFU] | Activity [10] [log10CFU]
1 | N#Cc1ccc(Cn2cc(CN3c4ccc(/C=N/NC(=O)c5ccncc5)cc4Sc4ccc(C(F)(F)F)cc43)nn2)cc1 | 2.62 µM | 2 | 4 | 50 (≈ 81.9 µM) | 50 (≈ 81.9 µM) | 100 (≈ 164 µM) | 4 | 1480 (≈ 2420 µM) | 7.14 | 207 | – | – | – | –
2 | N#Cc1ccc(Cn2cc(CN3c4ccc(/C=N/NC(=O)c5cnccn5)cc4Sc4ccc(C(F)(F)F)cc43)nn2)cc1 | 2.61 µM | 2 | 4 | 50 (≈ 81.8 µM) | 50 (≈ 81.8 µM) | 100 (≈ 164 µM) | 4 | 2110 (≈ 3450 µM) | 11.6 | 183 | – | – | – | –
3 | N#Cc1ccc(Cn2cc(CN3c4ccccc4Sc4ccc(C(F)(F)F)cc43)nn2)cc1 | 1.6 µg/mL | 2 | 4 | – | – | – | 4 | 2080 (≈ 4500 µM) | 5 | 417 | – | – | – | –
4 | O=[N+]([O-])c1ccc(Cn2cc(CN3c4ccccc4Sc4ccccc43)nn2)cc1 | 1.6 µg/mL | 2 | 4 | 50 (≈ 120 µM) | 50 (≈ 120 µM) | 100 (≈ 241 µM) | 4 | 484 (≈ 1160 µM) | 11.4 | 42.5 | – | – | – | –
5 | COc1ccc(Cn2cc(CN3c4ccccc4Sc4ccccc43)nn2)cc1 | 1.6 µg/mL | 2 | 4 | 25 (≈ 62.4 µM) | 25 (≈ 62.4 µM) | 50 (≈ 125 µM) | 4 | 6040 (≈ 15100 µM) | 7.57 | 797 | – | – | – | –
6 | N#Cc1ccc(Cn2cc(CN3c4ccccc4Sc4cc(/C=N/NC(=O)c5ccncc5)ccc43)nn2)cc1 | 2.94 µM | 2 | 4 | 25 (≈ 46.1 µM) | 12.5 (≈ 23 µM) | 25 (≈ 46.1 µM) | 4 | 1300 (≈ 2390 µM) | 5.13 | 253 | – | – | – | –
7 | N#Cc1ccc(Cn2cc(CN3c4ccccc4Sc4cc(/C=N/NC(=O)c5ccccc5)ccc43)nn2)cc1 | 2.95 µM | 2 | 4 | 25 (≈ 46.2 µM) | 12.5 (≈ 23.1 µM) | 25 (≈ 46.2 µM) | 4 | 434 (≈ 802 µM) | 13.4 | 32.3 | – | – | – | –
8 | N#Cc1ccc(Cn2cc(CN3c4ccc(/C=N/NC(=O)c5cccnc5)cc4Sc4ccc(C(F)(F)F)cc43)nn2)cc1 | 2.62 µM | 2 | 4 | 100 (≈ 164 µM) | 50 (≈ 81.9 µM) | 100 (≈ 164 µM) | 4 | 845 (≈ 1380 µM) | 7.32 | 115 | – | – | – | –
9 | N#Cc1ccc(Cn2cc(CN3c4ccccc4Sc4cc(/C=N/NC(=O)c5cccnc5)ccc43)nn2)cc1 | 2.94 µM | – | 4 | 25 (≈ 46.1 µM) | 12.5 (≈ 23 µM) | 50 (≈ 92.1 µM) | 4 | 1610 (≈ 2970 µM) | 8.42 | 192 | – | – | – | –
10 | CSc1ccc2c(c1)N(CCC1CCCCN1C)c1ccccc1S2 (stereo not given) [THIORIDAZINE] | – | – | – | – | – | – | – | – | – | – | >1 | >1 | >1 | >1

— ChEMBL document CHEMBL4390659, “Molecular hybridization approach for phenothiazine incorporated 1,2,3-triazole hybrids as promising antimicrobial agents: Design, synthesis, molecular docking and in silico ADME studies” (Eur J Med Chem, 2019)
